Experimental data from PMC9958325 (Nature Communications, 2023).
Several values for one entry are separate records, joined by “and”; a condition that tells them apart may be missing. Equal values may be shown once. Where a name gives a salt, the structure may show the parent alone. Read-outs that look alike come from different tables or passages of the source. Marks after values point to notes of the source that are not given here. Peptide text beside a SMILES is read from it. * marks the point of attachment. Cbz = O=C(OCc1ccccc1)*; CH2F = FC*

Tests used:
[1] = test system: SARS-CoV-2^WK-521; test: microbe, parasite or virus in culture; format: cell-based; set-up: EC95, individual assays / EC95, Average: unit: µM
[2] = Pharmacokinetic study in ICR mice; details: N = 2 to 3 male or female ICR mice; 5h, TKB125 i.v. 2 mg/kg
[3] = test system: SARS-CoV-2^WK521 in HeLa-ACE2-TMPRSS2 cells; test: Antiviral assay, HeLa-ACE2-TMPRSS2 cells, WK521; format: cell-based
[4] = in vitro; details: African green monkey, VeroE6 cells
[5] = in vitro; details: human, HeLa-ACE2-TMPRSS2 cells
[6] = molecular target: T1, human cathepsin L (Homo sapiens, UniProt P07711); test: Human cathepsin L inhibitor screening assay; format: biochemical; details: triplicate, listed as Cathepsin L inhibitor/FF-FMK
T1 construct: purchased abcam ab197012
T1 sequence (P07711 114-333): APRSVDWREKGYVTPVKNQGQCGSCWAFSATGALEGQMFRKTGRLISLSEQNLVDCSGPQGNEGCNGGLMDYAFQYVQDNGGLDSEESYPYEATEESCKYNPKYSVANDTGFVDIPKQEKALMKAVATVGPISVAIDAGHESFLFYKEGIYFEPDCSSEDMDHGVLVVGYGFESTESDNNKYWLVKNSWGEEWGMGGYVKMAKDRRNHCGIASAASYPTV

[7] = molecular target: SARS-CoV-2 M^pro/3CL^pro (Severe acute respiratory syndrome coronavirus 2, UniProt P0DTD1); format: biochemical; set-up: IC95, individual assays / IC95, Average: unit: µM
[8] = mouse, in vivo
[9] = test system: HeLa-ACE2-TMPRSS2 cells; test: Intracellular concentrations of compounds (LC/MS), HeLa-ACE2-TMPRSS2 cells; details: for intracellular compound, /1x10^6: calculated value per cell count; for intracellular compound, calculated value /20uL: from AUC against pmol standard curve
[10] = test system: VeroE6 cells; test: Intracellular concentrations of compounds (LC/MS), VeroE6 cells; details: Vero, calculated value per cell count
[11] = read-out: EC50, individual assays
[12] = read-out: SARS-CoV2 RNA VeroE6 cell-based assay EC50
[13] = Severe acute respiratory syndrome coronavirus 2, SARS-CoV-2^WK521, read-out: EC50, HeLa-ACE2-TMPRSS2
[14] = Severe acute respiratory syndrome coronavirus 2, read-out: EC50, HeLa-AEC2-TMPRSS2, individual assays, source data
[15] = Severe acute respiratory syndrome coronavirus 2, source data, read-out: EC50, HeLa-AEC2-TMPRSS2, Average
[16] = read-out: EC50, HeLa-AEC2-TMPRSS2, individual assays, source data
[17] = Severe acute respiratory syndrome coronavirus 2, Vero C1008, read-out: SARS-CoV2 RNA VeroE6 cell-based assay EC50
[18] = FRET, mean ± 1 S.D., read-out: SARS-CoV2 M^pro enzyme assay IC50
[19] = source data, M^pro enzyme assay
[20] = source data, M^pro enzyme assay, read-out: IC50, Average
[21] = Hela ACE2 TMPRSS2, drug 10, duplicates
[22] = Hela ACE2 TMPRSS2, drug 50, duplicates
[23] = Hela ACE2 TMPRSS2, drug 100, duplicates

COc1cccc2[nH]c(C(=O)N[C@@H](CC(C)C)C(=O)N[C@@H](C[C@@H]3CCNC3=O)C(=O)c3nc4ccccc4s3)cc12 [Compound 5h, reference compound]
EC95, Average [1]: 9.4675 | EC95, individual assays [1]: 9.47 and 9.68 and 9.72 and 9 | SARS-CoV2 RNA VeroE6 cell-based assay EC95 [1]: 9470 ± 330 nM | EC50 [1, 11]: 2700 nM and 3200 nM and 2000 nM and 2500 nM | EC50 [1, 12]: 2600 ± 500 nM | T1/2 [2]: 0.27§ h

Cn1cnc(Cn2c(=O)[nH]/c(=N\c3cc4cn(C)nc4cc3Cl)n(Cc3cc(F)c(F)cc3F)c2=O)n1 [Ensitrelvir fumarate]
EC50 [3, 13]: 200 ± 30 nM | EC50 [3, 14]: 211 nM | EC50 [3, 15]: 204 nM | EC50 [3, 16]: 230 nM and 170 nM | EC50 ([1]; Severe acute respiratory syndrome coronavirus 2, Vero C1008, read-out: EC50, Average): 106 nM | EC50 [1, 17]: 110 ± 50 nM | EC50 [1, 11]: 45 nM and 127 nM and 156 nM and 98 nM | CC50 at 3 days [4]: > 100000 nM | CC50 at 3 days [5]: > 100000 nM

O=C(NC(Cc1ccccc1)C(=O)NC(Cc1ccccc1)C(=O)CF)OCc1ccccc1 (stereo not drawn) [FF-FMK, reference compound] (Cbz-Phe-Phe-CH2F; configuration not given here)
% inhibition against human Cathepsin ([6]; 0.00106 µM): 39.8315% and 40.7898% and 42.7898% | % inhibition against human Cathepsin ([6]; 0.0053 µM): 58.2277% and 58.5989% and 59.5989% | % inhibition against human Cathepsin ([6]; 0.0266 µM): 77.0946% and 80.3037% and 81.3037% | % inhibition against human Cathepsin ([6]; 0.6 µM): 98.8112% and 98.8499% | % inhibition against human Cathepsin ([6]; 3.3 µM): 99.7789% and 99.782% | % inhibition against human Cathepsin ([6]; 16.6 µM): 99.9553% and 99.0234% and 100.023%

CC(C)C(=O)OC[C@H]1O[C@@H](n2ccc(NO)nc2=O)[C@H](O)[C@@H]1O [Molnupiravir]
EC50 [3, 13]: 320 ± 70 nM | EC50 [3, 14]: 270 nM | EC50 [3, 15]: 323 nM | EC50 [3, 16]: 300 nM and 400 nM | EC50 ([1]; Severe acute respiratory syndrome coronavirus 2, Vero C1008, read-out: EC50, individual assays): 270 nM | EC50 [1, 17]: 350 ± 60 nM | EC50 [1, 11]: 330 nM and 380 nM and 420 nM | CC50 at 3 days [4]: > 100000 nM | CC50 at 3 days [5]: > 100000 nM

COc1ccc(F)c2[nH]c(C(=O)N[C@@H](CC(C)C)C(=O)N[C@@H](C[C@@H]3CCNC3=O)C(=O)c3nc4ccccc4s3)cc12 [TKB125]
EC95, Average [1]: 8.3875 | EC95, individual assays [1]: 8.28 and 8.91 and 7.98 and 8.38 | SARS-CoV2 RNA VeroE6 cell-based assay EC95 [1]: 8390 ± 390 nM | EC50 ([1]; read-out: EC50, Average): 1820 nM | EC50 [1, 11]: 1700 nM and 1510 nM and 3160 nM and 900 nM | EC50 [1, 12]: 1820 ± 960 nM | T1/2 [2]: 0.76 § h | SARS-CoV2 M^pro enzyme assay IC95 ([7]; FRET, mean ± 1 S.D.): 1020 ± 400 nM | IC50 [7, 18]: 34 ± 6 nM | IC95, Average [7, 19]: 1.022 | IC95, individual assays [7, 19]: 0.8844 and 1.476 and 0.7048 | IC50 [7, 20]: 34 nM | IC50 ([7]; source data, M^pro enzyme assay, read-out: IC50, individual assays): 28.2 nM and 39.6 nM and 34.1 nM

COc1ccc(F)c2[nH]c(C(=O)N[C@@H](CC(C)C)C(=O)N[C@@H](C[C@@H]3CCNC3=O)C(=O)c3nc4c(F)cccc4s3)cc12 [TKB198]
EC95, Average [1]: 0.834 | EC95, individual assays [1]: 0.856 and 0.86 and 0.8 and 0.82 | Improvement of EC50 and EC95 values relative to TKB125 [1]: about 10 fold | SARS-CoV2 RNA VeroE6 cell-based assay EC95 [1]: 830 ± 30 nM | EC50 ([1]; read-out: EC50, Average): 272 nM | EC50 [1, 11]: 130 nM and 300 nM and 400 nM and 260 nM | EC50 [1, 12]: 270 ± 110 nM | T1/2 [2]: 0.83 § h | Cmax [8]: 85 ng/mL | Oral F ([8]; po): 1.98§ % | SARS-CoV2 M^pro enzyme assay IC95 ([7]; FRET, mean ± 1 S.D.): 750 ± 270 nM | IC50 [7, 18]: 23 ± 13 nM | IC95, Average [7, 19]: 0.7533 | IC95, individual assays ([7]; source data, M^pro enzyme assay, listed as TKB0198): 1.0700 and 0.6000 and 0.5900 | IC50 ([7]; source data, M^pro enzyme assay, listed as TKB0198, read-out: IC50, individual assays): 36 nM and 10.1 nM | IC50 [7, 20]: 23 nM

CC(C)(C)C(NC(=O)C(F)(F)F)C(=O)N1CC2C(C1C(=O)NC(CC1CCNC1=O)C(=O)c1nc3c(F)cccc3s1)C2(C)C (stereo not shown) [TKB0245A]
intracellular compound, pmol(total) [9, 21]: 0.636 pmol and 0.5701 pmol | intracellular compound, /1x10^6 [9, 21]: 0.2544 /1x10^6 and 0.228 /1x10^6 | intracellular compound, calculated value /20uL [9, 21]: 0.59 /20uL and 0.50 /20uL | intracellular compound, pmol(total) [9, 22]: 4.585 pmol and 3.749 pmol | intracellular compound, /1x10^6 [9, 22]: 1.834 /1x10^6 and 1.4997 /1x10^6 | intracellular compound, calculated value /20uL [9, 22]: 4.77 /20uL and 3.30 /20uL | intracellular compound, pmol(total) [9, 23]: 8.312 pmol and 9.388 pmol | intracellular compound, /1x10^6 [9, 23]: 3.325 /1x10^6 and 3.755 /1x10^6 | intracellular compound, calculated value /20uL [9, 23]: 6.65 /20uL and 9.39 /20uL | intracellular compound, /1x10^6 ([10]; drug 10, duplicates): 0.09213 /1x10^6 and 0.09745 /1x10^6 | intracellular compound, /1x10^6 ([10]; drug 100, duplicates): 0.9321 /1x10^6 and 0.7861 /1x10^6
